Data taken from US8293705B2, “HCV protease inhibitors and uses thereof” (Avila Therapeutics, Inc., priority 2007, dated 2012).

Columns and labels:
[1] = target: T1, HCV NS3/4A 1b protease A156T (Hepatitis C virus genotype 1b, UniProt Q9WMX2, A1182T); assay: HCV protease FRET assay (IC50), Example 15; assay type: biochemical
T1 construct: 10× stocks of NS3/4A protease enzyme from Bioenza (Mountain View, Calif.); purchased Bioenza (Mountain View, Calif.)
Protocol: (§1) The following protocol was used to generate IC50 values as depicted for compound 239 in Table 4, above. The protocol is a modified FRET-based assay (v—02) from In Vitro Resistance Studies of HCV Serine Protease Inhibitors, 2004, JBC, vol. 279, No. 17, pp 17508-17514.
(§2) 10× stocks of NS3/4A protease enzyme from Bioenza (Mountain View, Calif.) and 1.13× 5-FAM/QXL™520 FRET peptide substrate from Anaspec (San Jose, Calif.) were prepared in 50 mM HEPES, pH 7.8, 100 mM NaCl, 5 mM DTT and 20% glycerol. 5 μL of each enzyme were pre-incubated in a Corning (#3573) 384-well, black, non-treated microtiter plate (Corning, N.Y.) for 30 min at 25° C. with a 0.5 μL volume of 50% DMSO and serially diluted compounds prepared in 50% DMSO. Protease reactions were started with the addition of 45 μL of the FRET substrate and monitored for 120 minutes at λex487/λem514 through Quad^4 monochromoters in a Synergy^4 plate reader from BioTek (Winooski, Vt.). At the conclusion of each assay, progress curves from each well were examined for linear reaction kinetics and fit statistics (R^2, absolute sum of squares). Initial velocity (0 minutes to 30+ minutes) from each reaction was determined from the slope of a plot of relative fluorescence units vs time (minutes) and then plotted against inhibitor concentration to estimate IC50 from log [Inhibitor] vs Response, Variable Slope model in GraphPad Prism from GraphPad Software (San Diego, Calif.).
(§3) The compound numbers correspond to the compound numbers in Table 3. […] ;

[2] = target: T2, HCV NS3/4A 1b protease D168A (Hepatitis C virus genotype 1b, UniProt Q9WMX2, D1194A); assay: HCV protease FRET assay (IC50), Example 15; assay type: biochemical
T2 construct: 10× stocks of NS3/4A protease enzyme from Bioenza (Mountain View, Calif.); purchased Bioenza (Mountain View, Calif.)
Protocol: as §1, §2, §3

[3] = target: T3, HCV NS3/4A 1b protease wild type (Hepatitis C virus genotype 1b, UniProt Q9WMX2); assay: HCV protease FRET assay (IC50), Example 15; assay type: biochemical
T3 construct: 10× stocks of NS3/4A protease enzyme from Bioenza (Mountain View, Calif.); purchased Bioenza (Mountain View, Calif.)
Protocol: as §1, §2, §3

[4] = target: T1, HCV NS3/4A 1b protease A156T; assay: HCV protease FRET assay (IC50_APP), Example 16; assay type: biochemical
[5] = target: T2, HCV NS3/4A 1b protease D168A; assay: HCV protease FRET assay (IC50_APP), Example 16; assay type: biochemical
[6] = target: T3, HCV NS3/4A 1b protease wild type; assay: HCV protease FRET assay (IC50_APP), Example 16; assay type: biochemical
[7] = system: HCV RNA replicon in cell line ET (luc-ubi-neo/ET), human Huh7 hepatoma; assay: HCV RNA replicon assay, Example 14 Method A; assay type: cell-based; conditions: Hepatitis C virus, Huh-7, assay of Example 14, 72 hr; for IC50: read-out: Inhibition, Replicon (IC50); for IC90: read-out: Inhibition, Replicon, IC90 value
Protocol: The compounds were assayed to evaluate the antiviral activity and cytotoxicity of compounds in vitro using HCV RNA replicons. This assay used the cell line ET (luc-ubi-neo/ET), which is a human Huh7 hepatoma cell line that contains an HCV RNA replicon with a stable luciferase (Luc) reporter and three cell culture-adaptive mutations. […]
The ET cell line was grown in Dulbecco's modified essential media (DMEM), 10% fetal bovine serum (FBS), 1% penicillin-streptomycin (pen-strep), 1% glutamine, 250 μg/mL G418 in a 5% CO2 incubator at 37° C. All cell culture reagents were obtained from Mediatech (Manassas, Va.). Cells were trypsinized (1% trypsin:EDTA) and plated out at 5×10^3 cells/well in white 96-well assay plates (Costar) dedicated to cell number (cytotoxicity) or antiviral activity assessments. Drugs were added at six 3-fold concentrations each and the assay was run in DMEM, 5% FBS, 1% pen-strep, 1% glutamine. Human interferon alpha-2b (PBL Biolabs, New Brunswick, N.J.) was included in each run as a positive control compound. Cells were processed 72 hr post drug addition when the cells are still subconfluent. Antiviral activity was measured by analyzing replicon-derived luciferase activity using the Steady-Glo Luciferase Assay System (Promega, Madison, Wis.) according to manufacturer's instruction. The number of cells in each well was determined by CytoTox-1 reagent (Promega). Compound profile was derived by calculating applicable EC50 (effective concentration inhibiting virus replication by 50%), EC90 (effective concentration inhibiting virus replication by 90%), IC50 (concentration decreasing cell viability by 50%) and SI50 (selective index: […]) values.

HCV NS3/4A wild type = target: T4, HCV NS3/4A wild type (Hepatitis C virus genotype 1b, UniProt Q9WMX2); assay: Mass spectrometric analysis of covalent modification (MALDI-TOF); assay type: binding; conditions: 10× excess of test compound to protein
T4 construct: HCV NS3/4A wild type (wt) was incubated for 1 hr at a 10× fold access of test compound to protein; purchased Bioenza, Calif
In short: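 HCV NS3/4A protease (100 pmol wild type; C159S mutant as comparison) incubated with 10-fold molar excess of compound for 1 and 3 h. Samples acidified in 0.1% TFA, C4 ZipTip-desalted, analysed by MALDI-TOF intact-mass measurement in linear mode, sinapinic acid matrix.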

HCV NS3•4A protease WT = HCV NS3•4A protease WT (Hepatitis C virus genotype 1b, UniProt Q9WMX2); assay: cell-based
[8] = target: T5, HCV NS3/4A 1b protease R155K (Hepatitis C virus genotype 1b, UniProt Q9WMX2, R1181K); assay: HCV protease FRET assay (IC50_APP), Example 16; assay type: biochemical; conditions: reaction started immediately after enzyme addition, read-out: Inhibition (apparent IC50, IC50_APP), HCV R155K
T5 construct: 10× stocks of NS3/4A protease enzyme from Bioenza (Mountain View, Calif.); purchased Bioenza (Mountain View, Calif.)

[9] = target: T6, HCV NS3/4A mutant A156T protease (Hepatitis C virus genotype 1b, UniProt Q9WMX2, A1182T); assay: Mass spectrometric analysis of covalent modification (MALDI-TOF); assay type: binding; conditions: 3 hours, 10× excess of compound
T6 construct: mass spectroscopic analysis of HCV NS3/4A mutant A156T protease in the presence of test compound I-11
Protocol: (§4) As depicted in FIGS. 4, 5, 6, and 7, mass spectrometric analysis of HCV mutants in the presence of compound I-11 was performed. […] 2 ul aliquots of the samples were diluted with 10 ul of 0.1% TFA prior to micro C4 ZipTipping directly onto the MALDI target using Sinapinic acid as the desorption matrix (10 mg/ml in 0.1% TFA:Acetonitrile 50:50). For intact protein mass measurement the instrument was set in linear mode using a pulsed extraction setting of 24,500 and apomyoglobin as the standard to calibrate the instrument.

[10] = target: T7, HCV NS3/4A mutant R155K protease (Hepatitis C virus genotype 1b, UniProt Q9WMX2, R1181K); assay: as above; assay type: binding; conditions: 3 hours, 10× excess of compound
T7 construct: mass spectroscopic analysis of HCV NS3/4A mutant R155K protease in the presence of test compound I-11
Protocol: as §4

[11] = target: T8, HCV NS3/4A 1b protease C159S (Hepatitis C virus genotype 1b, UniProt Q9WMX2, C1185S); assay: HCV protease FRET assay (IC50_APP), Example 16; assay type: biochemical; conditions: reaction started immediately after enzyme addition, read-out: Inhibition (apparent IC50, IC50_APP), HCV C159S
T8 construct: 10× stocks of NS3/4A protease enzyme from Bioenza (Mountain View, Calif.); purchased Bioenza (Mountain View, Calif.)

[12] = system: HCV RNA replicon in cell line ET (luc-ubi-neo/ET), human Huh7 hepatoma; assay: Replicon luciferase assay, Example 26; assay type: cell-based; conditions: Hepatitis C virus, Huh-7, assay of Example 26, 72 hr, read-out: Inhibition, Replicon, EC50 value
In short: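 Huh7-derived ET cells carrying a luciferase-reporter HCV replicon, 5×10^3 cells/well, exposed 72 h to six 3-fold compound concentrations in DMEM with 5% FBS. Replicon luciferase gives EC50/EC90; Cell Titer Blue cell number gives cytotoxic IC50, with SI50 as their ratio. Interferon alpha-2b served as positive control.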

[13] = Inhibition (IC50), HCV D168A, FRET, 30 min pre-incubation at 25° C.

| Compound | IC50 ([1]; Comparative IC50 Values, A156T, biochemical assay, applicant's compound) | IC50 ([1]; Inhibition (IC50), HCV A156T, FRET, 30 min pre-incubation at 25° C.) | IC50 ([2]; Comparative IC50 Values, D168A, biochemical assay, applicant's compound) | IC50 [2, 13] | IC50 [3] | IC50 [4] | IC50 [5] | IC50 [6] | IC50 [7] | IC90 [7] | Covalent modification of HCV NS3/4A wild type (HCV NS3/4A wild type; MALDI-TOF) | Mass increase of new protein species vs protein with no compound (HCV NS3/4A wild type; 1 hr) | IC50 (HCV NS3•4A protease WT) | IC50 [8] | Conversion of HCV (A156T) mutant to compound adduct [9] | Conversion of HCV (R155K) mutant to compound adduct [10] | IC50 [11] | EC50 [12] |
| --- | --- | --- | --- | --- | --- | --- | --- | --- | --- | --- | --- | --- | --- | --- | --- | --- | --- | --- |
| C=CC(=O)NC[C@H](NC(=O)OC(C)(C)C)C(=O)N1C[C@H](OC(=O)N2Cc3cccc(F)c3C2)C[C@H]1C(=O)N[C@]1(C(=O)NS(=O)(=O)C2CC2)C[C@H]1C=C [Compound I-1, (3R,5S)-1-((S)-3-acrylamido-2-(tert-butoxycarbonylamino)propanoyl)-5-((1R,2S)-1-(cyclopropylsulfonylcarbamoyl)-2-vinylcyclopropylcarbamoyl)pyrrolidin-3-yl 4-fluoroisoindoline-2-carboxylate] | 3 nM | < 10 nM | 8 nM | < 10 nM | < 10 nM | 10 to 100 nM | 100 to 1000 nM | < 10 nM | 10 to 100 nM | 10 to 100 nM | reacted significantly | approximately 751 Da | 0.66 nM | – | – | – | – | – |
| C=CC(=O)N(C)C[C@H](NC(=O)OC(C)(C)C)C(=O)N1C[C@H](OC(=O)N2Cc3cccc(F)c3C2)C[C@H]1C(=O)N[C@]1(C(=O)NS(=O)(=O)C2CC2)C[C@H]1C=C [Compound I-11, (3R,5S)-1-((S)-2-(tert-butoxycarbonylamino)-3-(N-methylacrylamido)propanoyl)-5-((1R,2S)-1-(cyclopropylsulfonylcarbamoyl)-2-vinylcyclopropylcarbamoyl)pyrrolidin-3-yl 4-fluoroisoindoline-2-carboxylate] | – | – | – | 10 to 100 nM | < 10 nM | < 10 nM | 10 to 100 nM | < 10 nM | < 10 nM | 10 to 100 nM | – | – | – | 10 to 100 nM | complete conversion | good conversion | – | – |
| C=C[C@@H]1C[C@]1(NC(=O)[C@@H]1CC(OC(=O)N2Cc3cccc(F)c3C2)CN1C(=O)[C@H](CC(=O)C=C(C)C)NC(=O)OC(C)(C)C)C(=O)NS(=O)(=O)C1CC1 (some centres unmarked) [Compound I-32] | – | – | – | – | – | < 10 nM | 10 to 100 nM | < 10 nM | – | – | – | – | – | 10 to 100 nM | – | – | < 10 nM | < 10 nM |
